Results as given in patent US5482943A, “(6-fluoro-1,2-benzisoxazol-3-yl)-1-piperidinyl-alkyl-(2, 9-disubstituted-4H-pyrido[1,2-a]pyrimidin-4-one) derivatives” (Janssen Pharmaceutica N.V., priority 1990, dated 1996).

Key:
[1] = tested on: dopamine; experiment: Amphetamine antagonism in rats (agitation and oxygen hyperconsumption); type: in vivo; conditions: Rattus norvegicus, 0.75 h, compound sc, after 45 min amphetamine 2.5 mg/kg sc
Method: Amphetamine Antagonism in Rats
This test procedure is described in Industrial Pharmacology, Part II, Antidepressants, eds, S. Fielding and H. Lal, p. 125-141, Futura Publishing Company (1975). Solvent (controls) or the test compound (1) were injected sc, followed after 45 min by amphetamine (2.5 mg/kg, sc). Starting 15 min after the amphetamine injection, agitation and consumption of oxygen were evaluated every 15 min over a period of 1 hour. Agitation was scored 3 (pronounced), 2 (moderate), 1 (slight) and 0 (absent), the total score maximally being 4×3=12. Oxygen consumption was measured on a mercury manometer simultaneously. Significant inhibition required a total score for agitation of less than 11 (0.3% in controls) or a final scale reading for oxygen consumption of less than 105 Hg units (1.8% in controls; mean=118 units). Blockade of amphetamine-induced agitation was considered complete at a total score of less than 4 and that of oxygen consumption at a scale reading of less than 90 Hg units (i.e. the agitation score and oxygen consumption level of normal rats which is never observed in amphetamine-treated controls). Listed are the ED50 values (mg/kg) obtained with compound (1) and the subsequent amphetamine challenge.

[2] = tested on: dopamine; experiment: Apomorphine antagonism in rats (inhibition of apomorphine-induced agitation and stereotypy); type: in vivo; conditions: Rattus norvegicus, read-out: ED50 for inhibition of apomorphine-induced symptoms
From the text: Apomorphine Antagonism in Rats
The test procedure is described in Arch. Int. Pharmacodyn. […] In Table 1 are listed the ED50 values (mg/kg) for inhibition of apomorphine-induced symptoms obtained with compound (1) and the subsequent apomorphine challenge at different intervals (time).

[3] = tested on: dopamine; experiment: Apomorphine antagonism in dogs (absence of apomorphine-induced emesis); type: in vivo, dog; conditions: Canis lupus familiaris
Method: Apomorphine Antagonism in Dogs
This test is described in Psychopharmacol. 78, 210-213 (1982) and provides--besides a measure of the potency--a good measure of the duration of action of the tested compounds as dopamine antagonists. Apomorphine (0.31 mg/kg, sc; 4 times the ED95) induced emesis in all control dogs. At different time intervals before the apomorphine challenge, the dogs were pretreated with different doses (iv, sc or po) of the test compound (1). Complete absence of emesis for 1 hour after the challenge was adopted as the criterion for apomorphine antagonism in dogs. Listed are the ED50 values (mg/kg) obtained with compound (1) at different intervals after iv, sc or po administration.

SMILES: Cc1nc2c(C)cccn2c(=O)c1CCN1CCC(c2noc3cc(F)ccc23)CC1 [Compound 1, 3-[2-[4-(6-fluoro-1,2-benzisoxazol-3-yl)-1-piperidinyl]ethyl]-2,9-dimethyl-4H-pyrido[1,2-a]-pyrimidin-4-one]
- ED50 ([1]; blockade: agitation score <4, read-out: ED50, blockade of amphetamine-induced agitation): 64 µg/kg
- ED50 ([1]; blockade: scale reading <90 Hg units, read-out: ED50, blockade of oxygen hyperconsumption): 190 µg/kg
- ED50 ([1]; inhibition: agitation score <11, read-out: ED50, inhibition of amphetamine-induced agitation): 14 µg/kg
- ED50 ([1]; inhibition: scale reading <105 Hg units, read-out: ED50, inhibition of oxygen hyperconsumption): 57 µg/kg
- ED50 ([2]; Time 0.5 between compound and apomorphine challenge (1.25 mg/kg iv)): 21 µg/kg
- ED50 ([2]; Time 1 between compound and apomorphine challenge (1.25 mg/kg iv)): 18 µg/kg
- ED50 ([2]; Time 2 between compound and apomorphine challenge (1.25 mg/kg iv)): 32 µg/kg
- ED50 ([2]; Time 4 between compound and apomorphine challenge (1.25 mg/kg iv)): 68 µg/kg
- ED50 ([2]; Time 8 between compound and apomorphine challenge (1.25 mg/kg iv)): 290 µg/kg
- ED50 ([3]; iv, 0.5 h before apomorphine 0.31 mg/kg sc, read-out: ED50 (iv)): 1.2 µg/kg
- ED50 ([3]; iv, 1 h before apomorphine 0.31 mg/kg sc, read-out: ED50 (iv)): 1.1 µg/kg
- ED50 ([3]; iv, 2 h before apomorphine 0.31 mg/kg sc, read-out: ED50 (iv)): 1.2 µg/kg
- ED50 ([3]; iv, 4 h before apomorphine 0.31 mg/kg sc, read-out: ED50 (iv)): 0.79 µg/kg
- ED50 ([3]; iv, 8 h before apomorphine 0.31 mg/kg sc, read-out: ED50 (iv)): 0.89 µg/kg
- ED50 ([3]; iv, 16 h before apomorphine 0.31 mg/kg sc, read-out: ED50 (iv)): 1.2 µg/kg
- ED50 ([3]; iv, 32 h before apomorphine 0.31 mg/kg sc, read-out: ED50 (iv)): 2.9 µg/kg
- ED50 ([3]; po, 0.5 h before apomorphine 0.31 mg/kg sc, read-out: ED50 (po)): 5 µg/kg
- ED50 ([3]; po, 1 h before apomorphine 0.31 mg/kg sc, read-out: ED50 (po)): 1.5 µg/kg
- ED50 ([3]; po, 2 h before apomorphine 0.31 mg/kg sc, read-out: ED50 (po)): 0.89 µg/kg
- ED50 ([3]; po, 4 h before apomorphine 0.31 mg/kg sc, read-out: ED50 (po)): 1.2 µg/kg
- ED50 ([3]; po, 8 h before apomorphine 0.31 mg/kg sc, read-out: ED50 (po)): 0.99 µg/kg
- ED50 ([3]; po, 16 h before apomorphine 0.31 mg/kg sc, read-out: ED50 (po)): 2.4 µg/kg
- ED50 ([3]; po, 32 h before apomorphine 0.31 mg/kg sc, read-out: ED50 (po)): 6.3 µg/kg
- ED50 ([3]; sc, 0.5 h before apomorphine 0.31 mg/kg sc, read-out: ED50 (sc)): 4.5 µg/kg
- ED50 ([3]; sc, 1 h before apomorphine 0.31 mg/kg sc, read-out: ED50 (sc)): 2.4 µg/kg
- ED50 ([3]; sc, 2 h before apomorphine 0.31 mg/kg sc, read-out: ED50 (sc)): 1.4 µg/kg
- ED50 ([3]; sc, 4 h before apomorphine 0.31 mg/kg sc, read-out: ED50 (sc)): 0.89 µg/kg
- ED50 ([3]; sc, 8 h before apomorphine 0.31 mg/kg sc, read-out: ED50 (sc)): 1.2 µg/kg
- ED50 ([3]; sc, 16 h before apomorphine 0.31 mg/kg sc, read-out: ED50 (sc)): 2.2 µg/kg
- ED50 ([3]; sc, 32 h before apomorphine 0.31 mg/kg sc, read-out: ED50 (sc)): 4.5 µg/kg
